Source: patent publication US12459912B2 (priority 2020, dated 2025)
“Also recorded” adds a separate entry of the source.

Tests used:
[1] = target: T1, human 5-HT transporter (hSERT) (Homo sapiens, UniProt P31645); experiment: Human serotonin transporter antagonist radioligand assay ([^3H]imipramine, CHO cells); type: binding
T1 construct: expressed in transfected cells; host or cells: CHO cells
Protocol: We therefore separately measured interactions with these transporters using two additional types of assays: an antagonist radioligand assay of inhibition of the human 5-HT transporter (hSERT) expressed in CHO cells (Tatsumi, M. et al. (1999), Eur. J. Pharmacol., 368: 277-283) and an assay measuring release of [^3H] […] While the former is sensitive to classic reuptake inhibition, the latter can detect the effects of substrates, which also induce release.
Benzothiophene derivatives were evaluated for inhibiting the human 5-HT transporter (hSERT) as expressed in CHO cells using an antagonist radioligand assay (Tatsumi, M. et al. (1999), Eur. J. Pharmacol., 368: 277-283). […] Test compounds were assayed in three trials at […], and 0.94868 μM.
When compounds are substrates for monoamine transporters instead of solely inhibitors, it is known that IC50 values underestimate their potency for interacting with these transporters (Ilic, M. et al. (2020), Frontiers in Pharmacology 11: 673).

[2] = target: 5-Hydroxytryptamine (Serotonin) Receptor 1B (5-HT1B) (Homo sapiens, UniProt P28222); experiment: 5-HT1B/cAMP; type: cell-based; conditions: EC50 at 5-HT1B, agonist
Swiss CD 1 mice = experiment: Marble burying test; type: in vivo; conditions: racemic compounds, intraperitoneally 30 minutes before a 30-min session
human DAT = target: T2, human DAT (Homo sapiens, UniProt Q01959); experiment: hDAT [^3H]dopamine release assay (CHO cells); type: cell-based; conditions: for DAT/SERT ratio: (DAT EC50)^−1/(SERT EC50)^−1, larger numbers indicate higher DAT selectivity; for [^3H]-labeled dopamine release (figure legend): percent of max release compared to a control, as function of concentration
T2 construct: expressed in transfected cells

human SERT = target: T3, human SERT (Homo sapiens, UniProt P31645); experiment: hSERT [^3H]serotonin release assay (CHO cells); type: cell-based; conditions: for [^3H]-labeled serotonin release (figure legend): percent of max release compared to a control, as function of concentration
T3 construct: expressed in transfected cells

[3] = Poos 1967; cited from earlier work
MAO-A = MAO-A (Rattus norvegicus, UniProt P21396); conditions: read-out: IC50 MAO-A; Vallejos et al. 2005; cited from earlier work
5-HT1B = 5-HT1B (Homo sapiens, UniProt P28222); conditions: Ray 2010; cited from earlier work
neuritogenesis = conditions: Ly et al. 2018, cited from earlier work
[4] = target: T4, nAChR(a4/b2) (Nicotinic acetylcholine Receptor α4 β2) (Homo sapiens, UniProt P17787+P43681); experiment: cell-based; conditions: reference compound, Blocker mode; read-out: RC50 (μM), Result Type IC50
T4 construct: expressed in transfected cells

[5] = target: T5, GABAA (Gamma-aminobutyric acid Receptor A); type: cell-based; conditions: reference compound, Blocker mode; read-out: RC50 (μM), Result Type IC50
T5 construct: other: opener

T2 sequence (Q01959 whole entry): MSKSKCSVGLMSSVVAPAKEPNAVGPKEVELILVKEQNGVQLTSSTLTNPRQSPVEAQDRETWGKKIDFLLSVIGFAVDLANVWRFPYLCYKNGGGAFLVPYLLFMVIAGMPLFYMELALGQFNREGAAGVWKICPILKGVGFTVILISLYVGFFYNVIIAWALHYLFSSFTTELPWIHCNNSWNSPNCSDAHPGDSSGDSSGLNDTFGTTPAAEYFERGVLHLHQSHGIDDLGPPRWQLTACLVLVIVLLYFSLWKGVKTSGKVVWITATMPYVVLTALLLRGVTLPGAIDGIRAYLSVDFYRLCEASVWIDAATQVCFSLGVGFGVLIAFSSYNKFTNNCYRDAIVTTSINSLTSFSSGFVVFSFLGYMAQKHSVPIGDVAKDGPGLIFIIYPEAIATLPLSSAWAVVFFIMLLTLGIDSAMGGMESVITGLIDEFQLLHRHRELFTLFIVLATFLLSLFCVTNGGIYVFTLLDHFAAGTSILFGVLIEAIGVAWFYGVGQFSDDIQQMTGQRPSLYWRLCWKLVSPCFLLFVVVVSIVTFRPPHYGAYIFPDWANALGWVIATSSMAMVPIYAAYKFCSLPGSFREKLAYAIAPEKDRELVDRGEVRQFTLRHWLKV
Chain of 5-Hydroxytryptamine (Serotonin) Receptor 1B (5-HT1B) (P28222 whole entry): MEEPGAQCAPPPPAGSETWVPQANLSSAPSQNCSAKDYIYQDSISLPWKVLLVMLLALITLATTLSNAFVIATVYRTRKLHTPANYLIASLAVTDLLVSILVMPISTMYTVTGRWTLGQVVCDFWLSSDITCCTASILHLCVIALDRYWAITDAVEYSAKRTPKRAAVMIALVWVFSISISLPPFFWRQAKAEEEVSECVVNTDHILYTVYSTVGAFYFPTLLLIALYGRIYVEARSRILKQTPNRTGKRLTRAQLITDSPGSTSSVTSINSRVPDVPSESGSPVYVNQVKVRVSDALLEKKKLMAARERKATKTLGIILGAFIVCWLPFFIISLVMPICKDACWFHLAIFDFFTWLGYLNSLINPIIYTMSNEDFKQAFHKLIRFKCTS
T1 sequence (P31645 whole entry): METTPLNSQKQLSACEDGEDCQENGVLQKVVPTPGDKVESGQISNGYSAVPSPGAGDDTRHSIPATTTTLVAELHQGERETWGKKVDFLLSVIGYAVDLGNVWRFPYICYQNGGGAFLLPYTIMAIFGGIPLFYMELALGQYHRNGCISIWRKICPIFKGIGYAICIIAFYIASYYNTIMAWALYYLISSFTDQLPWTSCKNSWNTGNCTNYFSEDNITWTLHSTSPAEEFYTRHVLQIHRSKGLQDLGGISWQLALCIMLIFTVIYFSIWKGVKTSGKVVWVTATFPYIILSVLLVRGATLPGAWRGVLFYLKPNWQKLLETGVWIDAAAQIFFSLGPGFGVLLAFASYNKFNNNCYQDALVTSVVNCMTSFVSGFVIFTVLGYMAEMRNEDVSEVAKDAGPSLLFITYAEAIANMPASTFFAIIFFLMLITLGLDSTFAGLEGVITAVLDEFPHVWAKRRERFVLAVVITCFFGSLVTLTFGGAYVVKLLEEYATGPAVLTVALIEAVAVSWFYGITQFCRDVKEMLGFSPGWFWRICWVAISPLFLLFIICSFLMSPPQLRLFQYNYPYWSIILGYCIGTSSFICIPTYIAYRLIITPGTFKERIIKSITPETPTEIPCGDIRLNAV
T3 sequence (P31645 whole entry): as above
Chain of 5-HT1B (P28222 whole entry, species assumed): as the sequence (P28222 whole entry) above
T4 sequence (P43681 29-627 limits assumed): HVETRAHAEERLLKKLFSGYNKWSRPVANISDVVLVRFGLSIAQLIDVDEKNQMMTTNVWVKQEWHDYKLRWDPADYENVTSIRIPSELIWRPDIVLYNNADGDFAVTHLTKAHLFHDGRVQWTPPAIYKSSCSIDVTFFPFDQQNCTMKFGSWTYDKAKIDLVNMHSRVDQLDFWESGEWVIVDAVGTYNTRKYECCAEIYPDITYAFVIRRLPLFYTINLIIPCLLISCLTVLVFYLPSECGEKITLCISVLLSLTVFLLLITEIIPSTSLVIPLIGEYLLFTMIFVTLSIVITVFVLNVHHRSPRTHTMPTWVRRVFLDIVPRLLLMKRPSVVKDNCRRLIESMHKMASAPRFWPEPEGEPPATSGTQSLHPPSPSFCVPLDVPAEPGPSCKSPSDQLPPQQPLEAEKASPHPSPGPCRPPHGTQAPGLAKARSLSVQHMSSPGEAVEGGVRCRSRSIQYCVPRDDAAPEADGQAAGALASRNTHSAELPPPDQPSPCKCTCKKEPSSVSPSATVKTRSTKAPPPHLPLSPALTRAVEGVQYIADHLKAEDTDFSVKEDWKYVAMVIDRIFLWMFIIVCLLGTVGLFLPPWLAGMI
T4 sequence (P17787 26-502): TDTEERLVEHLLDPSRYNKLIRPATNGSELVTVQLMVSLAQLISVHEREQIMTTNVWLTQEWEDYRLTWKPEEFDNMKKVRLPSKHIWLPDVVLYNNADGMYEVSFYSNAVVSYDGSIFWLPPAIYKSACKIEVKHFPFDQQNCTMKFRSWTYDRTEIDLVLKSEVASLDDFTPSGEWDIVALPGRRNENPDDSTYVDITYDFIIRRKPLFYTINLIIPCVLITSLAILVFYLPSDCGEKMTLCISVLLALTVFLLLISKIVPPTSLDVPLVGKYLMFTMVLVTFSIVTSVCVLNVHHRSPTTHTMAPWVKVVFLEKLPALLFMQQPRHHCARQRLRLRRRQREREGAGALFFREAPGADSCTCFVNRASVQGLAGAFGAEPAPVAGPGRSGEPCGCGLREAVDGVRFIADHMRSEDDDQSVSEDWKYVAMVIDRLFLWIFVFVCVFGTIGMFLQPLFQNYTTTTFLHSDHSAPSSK
Chain of MAO-A (P21396 whole entry): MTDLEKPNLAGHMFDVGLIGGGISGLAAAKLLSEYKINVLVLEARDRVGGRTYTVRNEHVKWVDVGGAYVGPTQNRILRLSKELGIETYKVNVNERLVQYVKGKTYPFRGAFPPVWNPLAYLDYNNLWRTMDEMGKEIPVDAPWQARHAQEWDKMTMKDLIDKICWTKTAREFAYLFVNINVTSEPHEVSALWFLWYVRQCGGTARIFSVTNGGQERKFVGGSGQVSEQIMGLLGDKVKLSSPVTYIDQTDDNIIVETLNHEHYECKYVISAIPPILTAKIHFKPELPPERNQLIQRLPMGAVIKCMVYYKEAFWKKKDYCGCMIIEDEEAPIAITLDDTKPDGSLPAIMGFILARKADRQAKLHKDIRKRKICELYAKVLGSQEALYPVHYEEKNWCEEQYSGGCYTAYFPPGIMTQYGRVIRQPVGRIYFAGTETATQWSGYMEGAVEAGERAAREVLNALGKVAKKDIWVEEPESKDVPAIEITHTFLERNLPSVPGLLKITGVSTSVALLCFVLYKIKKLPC

Question: Which IC50 [1] does the source give for `CNC(C)Cc1ccc2sccc2c1` (stereo not shown) here?
Answer: 250 nM

Question: What about the Ki [1] of the same molecule?
Answer: 120 nM

Question: Which IC50 [1] does the source give for `CNC(C)C(=O)c1ccc2sccc2c1` (stereo not shown) here?
Answer: 2000 nM

Question: And the Ki [1]?
Answer: 900 nM

Question: Which IC50 [1] does the source give for `CCNC(C)Cc1ccc2sccc2c1` (stereo not shown) here?
Answer: 100 nM

Question: What about the Ki [1] of the same molecule?
Answer: 50 nM

Question: Which results are given for `CNC(C)C(=O)c1ccc2sccc2c1.Cl` (stereo not shown) [Bk-5-MAPBT, 1-(benzo[b]thiophen-5-yl)-2-(methylamino) propan-1-one hydrochloride]?
Answer: EC50 [2]: 59 nM; anxiolytic effect (marbles left unburied versus placebo) (Swiss CD 1 mice): dose-dependent anxiolytic effects; EC50 (human DAT): 194 nM; DAT/SERT ratio (human DAT): 0.52; [^3H]-labeled dopamine release (figure legend) (human DAT): rapidly induces extracellular dopamine and serotonin release; EC50 (human SERT): 101 nM; [^3H]-labeled serotonin release (figure legend) (human SERT): rapidly induces extracellular dopamine and serotonin release

Question: For `CC(N)Cc1csc2ccccc12` (stereo not shown) [Compound 3-APBT, 1-(1-benzothiophen-3-yl)propan-2-amine], which effect on appetite [3] is on record?
Answer: acted to reduce appetite

Question: What about the IC50 (MAO-A) of the same molecule?
Answer: 16200 ± 400 nM

Question: Which results are given for `CCNC(C)Cc1ccc2sccc2c1.Cl` (stereo not shown) [Compound 5-EAPBT, 1-(benzothiophen-5-yl)-N-ethylpropan-2-amine hydrochloride]?
Answer: anxiolytic effect (marbles left unburied versus placebo) (Swiss CD 1 mice): dose-dependent anxiolytic effects; EC50 (human DAT): 98 nM; DAT/SERT ratio (human DAT): 0.54; dopamine release Emax in comparison to the reference releaser amphetamine (human DAT; high concentrations, 100 μM amphetamine as reference, hydrochloride): partial DAT substrate; also recorded: Emax below that of the reference releaser; [^3H]-labeled dopamine release (figure legend) (human DAT): rapidly induces extracellular dopamine and serotonin release; EC50 (human SERT): 53 nM; [^3H]-labeled serotonin release (figure legend) (human SERT): rapidly induces extracellular dopamine and serotonin release

Question: For `CNC(C)Cc1ccc2sccc2c1.Cl` (stereo not shown) [Compound 5-MAPBT, 1-(benzothiophen-5-yl)-N-methylpropan-2-amine hydrochloride], which EC50 [2] is on record?
Answer: 38 nM

Question: What about the “anxiolytic effect (marbles left unburied versus placebo)” value (Swiss CD 1 mice) of the same molecule?
Answer: dose-dependent anxiolytic effects

Question: What about the EC50 (human DAT) of the same molecule?
Answer: 129 nM

Question: What about the DAT/SERT ratio (human DAT) of the same molecule?
Answer: 0.18

Question: What about the “[^3H]-labeled dopamine release (figure legend)” value (human DAT) of the same molecule?
Answer: rapidly induces extracellular dopamine and serotonin release

Question: What about the EC50 (human SERT) of the same molecule?
Answer: 23 nM

Question: And the “[^3H]-labeled serotonin release (figure legend)” value (human SERT)?
Answer: rapidly induces extracellular dopamine and serotonin release

Question: What does the source list for `CNC(C)Cc1ccc2ccsc2c1.Cl` (stereo not shown) [Compound 6-MAPBT, 1-(benzothiophen-6-yl)-N-methylpropan-2-amine hydrochloride]?
Answer: EC50 [2]: 24 nM; anxiolytic effect (marbles left unburied versus placebo) (Swiss CD 1 mice): dose-dependent anxiolytic effects; EC50 (human DAT): 71 nM; DAT/SERT ratio (human DAT): 0.80; [^3H]-labeled dopamine release (figure legend) (human DAT): rapidly induces extracellular dopamine and serotonin release; EC50 (human SERT): 57 nM; [^3H]-labeled serotonin release (figure legend) (human SERT): rapidly induces extracellular dopamine and serotonin release

Question: For `CNC(C)Cc1ccc2c(c1)OCO2` (stereo not shown) [MDMA], which “binding to 5-HT1B” value (5-HT1B) is on record?
Answer: does not bind directly

Question: What about the “Emax for promoting neuritogenesis relative to ketamine” value (neuritogenesis) of the same molecule?
Answer: approximately twice that of ketamine

Question: And the EC50 (neuritogenesis; read-out: EC50 for promoting neuritogenesis)?
Answer: 7.41 nM

Question: Which IC50 [1] does the source give for `CNC(C)Cc1ccc2ccsc2c1` (stereo not shown) [drawing 525] here?
Answer: 1500 nM

Question: What about the Ki [1] of the same molecule?
Answer: 680 nM

Question: Which IC50 [4] does the source give for “Dihydro-AY-erythroidine [reference compound]” here?
Answer: 0.682 µM

Question: For Picrotoxin [reference compound], which IC50 [5] is on record?
Answer: 2.78 µM
